For one test, the system named is FL5.12/Bcl-2 cells. Nature of the test: FL5.12/Bcl-2 cell viability assay. It is filed as cell-based, murine. The note with it: ratio of canine platelet EC50 to FL5.12/Bcl-2 EC50. From the text:
FL5.12 is an IL-3 dependent prolymphocytic murine cell line that undergoes apoptosis upon IL-3 withdrawal as a result of the upregulation of pro-apoptotic Bcl-2 proteins such as Bim and Puma. Stable overexpression of anti-apoptotic Bcl-2 protein (FL5.12/Bcl-2) protects against apoptosis induced by IL-3 withdrawal by sequestration of Bim and Puma. […] The ability of compounds to kill FL5.12/Bcl-2 cells upon IL-3 withdrawal is a direct measure of the compounds' ability to inhibit anti-apoptotic Bcl-2 protein function.
Wild type FL5.12/Bcl-2 overexpressing stable transfectants were cultured in RPMI-1640 supplemented with 2 mM L-glutamine, 10% FBS, 1 mM sodium pyruvate, 2 mM HEPES, 1% penicillin/streptomycin (Invitrogen), 57 μM β-ME, and 10% WEHI-3B conditioned medium (source of IL-3) and maintained at 37° C. containing 5% CO2. 1×10^6 cells/ml were washed 1×PBS and resuspended in medium not supplemented with 10% WEHI-3B for 48 hrs prior to cytotoxicity assays. Cells were then treated for an additional 24 hrs in the presence of various concentrations of the indicated compounds. Cell viability was assessed by CellTitre Glo assay (Promega Corp.) according to the manufacturer's recommendations.

The test system of the next test is GST-Bcl-2. In words: TR-FRET binding assay, Bcl-2. The following applies: TR-FRET Ki values. The essentials:
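Ki values come from Wang's competitive-binding equation applied to TR-FRET signal (excitation 340/35 nm; emission 520/525 nm F-Bak peptide, 495/510 nm Tb antibody). Protein, probe and antibody incubated with compound 3 h at room temperature; dilution series began at 50 μM as 2× stock in 10% DMSO.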
A general note: Time-resolved FRET reads energy transfer from a long-lived donor to a nearby acceptor.

`O=C(NS(=O)(=O)c1ccc(NCCCN2CCCC2)c([N+](=O)[O-])c1)c1ccc(N2CCN(CC3=C(c4ccc(Cl)cc4)CCC3)CC2)cc1Oc1cccc2[nH]ccc12` [Example 143, 4-(4-{[2-(4-chlorophenyl)cyclopent-1-en-1-yl]methyl}piperazin-1-yl)-2-(1H-indol-4-yloxy)-N-({3-nitro-4-[(3-pyrrolidin-1-ylpropyl)amino]phenyl}sulfonyl)benzamide]: in the test with FL5.12/Bcl-2 cells, the “Selectivity Ratio (Platelet EC50/FL5.12/Bcl-2 EC50)” value was above 251. Besides, the “Binding selectivity ratio (Bcl-XL Ki/Bcl-2 Ki)” value (shortened to “Binding selectivity ratio”) in the test on GST-Bcl-2 was determined as 33.8.

Turning to `CN1CCC(CNc2ccc(S(=O)(=O)NC(=O)c3ccc(N4CCN(CC5=C(c6ccc(Cl)cc6)CC(C)(C)CC5)CC4)cc3Oc3ccc4[nH]ccc4c3)cc2[N+](=O)[O-])CC1` [Example 104, 4-(4-{[2-(4-chlorophenyl)-4,4-dimethylcyclohex-1-en-1-yl]methyl}piperazin-1-yl)-2-(1H-indol-5-yloxy)-N-[(4-{[(1-methylpiperidin-4-yl)methyl]amino}-3-nitrophenyl)sulfonyl]benzamide], the “Selectivity Ratio (Platelet EC50/FL5.12/Bcl-2 EC50)” value in the test with FL5.12/Bcl-2 cells is on record as above 2392. In the test with GST-Bcl-2, the “Binding selectivity ratio” value stood at 637.7.

In the case of `COc1ccc(C2=C(CN3CCN(c4ccc(C(=O)NS(=O)(=O)c5ccc(NCCCN6CCCC6)c([N+](=O)[O-])c5)c(Oc5cccc6[nH]ccc56)c4)CC3)CCC(C)(C)C2)cc1` [Example 68, 2-(1H-indol-4-yloxy)-4-(4-{[2-(4-methoxyphenyl)-4,4-dimethylcyclohex-1-en-1-yl]methyl}piperazin-1-yl)-N-({3-nitro-4-[(3-pyrrolidin-1-ylpropyl)amino]phenyl}sulfonyl)benzamide], the “Selectivity Ratio (Platelet EC50/FL5.12/Bcl-2 EC50)” value in the test on FL5.12/Bcl-2 cells is on record as above 1144. Moreover, the “Binding selectivity ratio” value in the test with GST-Bcl-2 is 11.4.

On to `CN1CCC(Nc2ccc(S(=O)(=O)NC(=O)c3ccc(N4CCN(CC5=C(c6ccc(Cl)cc6)CC(C)(C)OC5)CC4)cc3Oc3cccc4[nH]ccc34)cc2[N+](=O)[O-])CC1` [Example 145, 4-(4-{[4-(4-chlorophenyl)-6,6-dimethyl-5,6-dihydro-2H-pyran-3-yl]methyl}piperazin-1-yl)-2-(1H-indol-4-yloxy)-N-({4-[(1-methylpiperidin-4-yl)amino]-3-nitrophenyl}sulfonyl)benzamide], for which the “Selectivity Ratio (Platelet EC50/FL5.12/Bcl-2 EC50)” value in the test with FL5.12/Bcl-2 cells stood at 730. Besides, the “Binding selectivity ratio” value in the test on GST-Bcl-2 stood at 401.

For `O=C(NS(=O)(=O)c1ccc(NCC2CCOCC2)c([N+](=O)[O-])c1)c1ccc(N2CCN(Cc3cc(CCN4CCCC4)ccc3-c3ccc(Cl)cc3)CC2)cc1Oc1cccc2[nH]ccc12` [Example 25, 4-(4-{[4′-chloro-4-(2-pyrrolidin-1-ylethyl)-1,1′-biphenyl-2-yl]methyl}piperazin-1-yl)-2-(1H-indol-4-yloxy)-N-({3-nitro-4-[(tetrahydro-2H-pyran-4-ylmethyl)amino]phenyl}sulfonyl)benzamide], in the test on FL5.12/Bcl-2 cells, the “Selectivity Ratio (Platelet EC50/FL5.12/Bcl-2 EC50)” value is listed as above 1020. Besides, the “Binding selectivity ratio” value in the test on GST-Bcl-2 stood at 4103.8.

Take `CN(C)CCCOc1ccc(S(=O)(=O)NC(=O)c2ccc(N3CCN(CC4=C(c5ccc(Cl)cc5)CC(C)(C)CC4)CC3)cc2Oc2ccc3[nH]ccc3c2)cc1[N+](=O)[O-]` [Example 100, 4-(4-{[2-(4-chlorophenyl)-4,4-dimethylcyclohex-1-en-1-yl]methyl}piperazin-1-yl)-N-({4-[3-(dimethylamino)propoxy]-3-nitrophenyl}sulfonyl)-2-(1H-indol-5-yloxy)benzamide]: in the test on FL5.12/Bcl-2 cells, the “Selectivity Ratio (Platelet EC50/FL5.12/Bcl-2 EC50)” value was 2029. The “Binding selectivity ratio” value in the test with GST-Bcl-2 came out at 71.4.

With `CN1CCC(Nc2ccc(S(=O)(=O)NC(=O)c3ccc(N4CCN(CC5=C(c6ccc(Cl)cc6)CC(C)(C)CC5)CC4)cc3Oc3ccc4[nH]ccc4c3)cc2[N+](=O)[O-])CC1` [Example 98, 4-(4-{[2-(4-chlorophenyl)-4,4-dimethylcyclohex-1-en-1-yl]methyl}piperazin-1-yl)-2-(1H-indol-5-yloxy)-N-({4-[(1-methylpiperidin-4-yl)amino]-3-nitrophenyl}sulfonyl)benzamide], the “Selectivity Ratio (Platelet EC50/FL5.12/Bcl-2 EC50)” value in the test with FL5.12/Bcl-2 cells is 4849. In addition, the “Binding selectivity ratio” value in the test with GST-Bcl-2 is above 50769.2.

As to `CN1CCC(Nc2ccc(S(=O)(=O)NC(=O)c3ccc(N4CCN(CC5=C(c6ccc(Cl)cc6)CC(C)(C)CC5)CC4)cc3Oc3cccc4[nH]ccc34)cc2[N+](=O)[O-])CC1` [Example 103, 4-(4-{[2-(4-chlorophenyl)-4,4-dimethylcyclohex-1-en-1-yl]methyl}piperazin-1-yl)-2-(1H-indol-4-yloxy)-N-({4-[(1-methylpiperidin-4-yl)amino]-3-nitrophenyl}sulfonyl)benzamide], the “Selectivity Ratio (Platelet EC50/FL5.12/Bcl-2 EC50)” value in the test on FL5.12/Bcl-2 cells came out at 2305. The “Binding selectivity ratio” value in the test on GST-Bcl-2 stood at 2096.1.

For the compound `CN(C)CCOc1cccc(-c2ccc(Cl)cc2)c1CN1CCN(c2ccc(C(=O)NS(=O)(=O)c3ccc(NCC4CCOCC4)c([N+](=O)[O-])c3)c(Oc3cccc4[nH]ccc34)c2)CC1` [Example 128, 4-[4-({4′-chloro-3-[2-(dimethylamino)ethoxy]-1,1′-biphenyl-2-yl}methyl)piperazin-1-yl]-2-(1H-indol-4-yloxy)-N-({3-nitro-4-[(tetrahydro-2H-pyran-4-ylmethyl)amino]phenyl}sulfonyl)benzamide], the “Selectivity Ratio (Platelet EC50/FL5.12/Bcl-2 EC50)” value in the test with FL5.12/Bcl-2 cells is given as above 2000. Also, the “Binding selectivity ratio” value with GST-Bcl-2 was 7117.6.

For `CN(C)CCCNc1ccc(S(=O)(=O)NC(=O)c2ccc(N3CCN(Cc4ccccc4-c4ccc(Cl)cc4)CC3)cc2Oc2ccc3ccccc3c2)cc1[N+](=O)[O-]` [Example 166, 4-{4-[(4′-chloro-1,1′-biphenyl-2-yl)methyl]piperazin-1-yl}-N-[(4-{[3-(dimethylamino)propyl]amino}-3-nitrophenyl)sulfonyl]-2-(2-naphthyloxy)benzamide], the “Selectivity Ratio (Platelet EC50/FL5.12/Bcl-2 EC50)” value in the test on FL5.12/Bcl-2 cells is reported as above 327. In the test with GST-Bcl-2, the “Binding selectivity ratio” value worked out at 7.1.

For `CC1(C)CCC(CN2CCN(c3ccc(C(=O)NS(=O)(=O)c4ccc(NCCCN5CCOCC5)c([N+](=O)[O-])c4)c(Oc4cccc5[nH]ccc45)c3)CC2)=C(c2ccc(Cl)cc2)C1` [Example 55, 4-(4-{[2-(4-chlorophenyl)-4,4-dimethylcyclohex-1-en-1-yl]methyl}piperazin-1-yl)-2-(1H-indol-4-yloxy)-N-({4-[(3-morpholin-4-ylpropyl)amino]-3-nitrophenyl}sulfonyl)benzamide], the “Selectivity Ratio (Platelet EC50/FL5.12/Bcl-2 EC50)” value in the test on FL5.12/Bcl-2 cells was 1614. The “Binding selectivity ratio” value in the test with GST-Bcl-2 is given as 126.9.

Regarding `CN(C)CCCNc1ccc(S(=O)(=O)NC(=O)c2ccc(N3CCN(CC4=C(c5ccc(Cl)cc5)CC(C)(C)CC4)CC3)cc2Oc2cccc3[nH]ccc23)cc1[N+](=O)[O-]` [Example 57, 4-(4-{[2-(4-chlorophenyl)-4,4-dimethylcyclohex-1-en-1-yl]methyl}piperazin-1-yl)-N-[(4-{[3-(dimethylamino)propyl]amino}-3-nitrophenyl)sulfonyl]-2-(1H-indol-4-yloxy)benzamide], in the test with FL5.12/Bcl-2 cells, the “Selectivity Ratio (Platelet EC50/FL5.12/Bcl-2 EC50)” value came to 1077. Further, the “Binding selectivity ratio” value with GST-Bcl-2 worked out at 68.7.

Take `CN1CCC(Nc2ccc(S(=O)(=O)NC(=O)c3ccc(N4CCN(CC5=C(c6ccc(Cl)cc6)CCCCC5)CC4)cc3Oc3ccc4[nH]ccc4c3)cc2[N+](=O)[O-])CC1` [Example 151, 4-(4-{[2-(4-chlorophenyl)cyclohept-1-en-1-yl]methyl}piperazin-1-yl)-2-(1H-indol-5-yloxy)-N-({4-[(1-methylpiperidin-4-yl)amino]-3-nitrophenyl}sulfonyl)benzamide]: in the test on FL5.12/Bcl-2 cells, the “Selectivity Ratio (Platelet EC50/FL5.12/Bcl-2 EC50)” value turned out to be 642. Also, the “Binding selectivity ratio” value in the test with GST-Bcl-2 is given as above 4074.1.

For the compound `CN1CCC(Nc2ccc(S(=O)(=O)NC(=O)c3ccc(N4CCN(CC5=C(c6ccc(Cl)cc6)CC(C)(C)CC5)CC4)cc3Oc3ccccc3)cc2[N+](=O)[O-])CC1` [Example 152, 4-(4-{[2-(4-chlorophenyl)-4,4-dimethylcyclohex-1-en-1-yl]methyl}piperazin-1-yl)-N-({4-[(1-methylpiperidin-4-yl)amino]-3-nitrophenyl}sulfonyl)-2-phenoxybenzamide], the “Selectivity Ratio (Platelet EC50/FL5.12/Bcl-2 EC50)” value with FL5.12/Bcl-2 cells is listed as 283. Further, the “Binding selectivity ratio” value in the test on GST-Bcl-2 is 15.8.

Take `CN(C)CCOc1ccc(-c2ccc(Cl)cc2)c(CN2CCN(c3ccc(C(=O)NS(=O)(=O)c4ccc(NCC5CCOCC5)c(S(=O)(=O)C(F)(F)F)c4)c(Oc4ccccc4)c3)CC2)c1` [Example 120, 4-[4-({4′-chloro-4-[2-(dimethylamino)ethoxy]-1,1′-biphenyl-2-yl}methyl)piperazin-1-yl]-2-phenoxy-N-({4-[(tetrahydro-2H-pyran-4-ylmethyl)amino]-3-[(trifluoromethyl)sulfonyl]phenyl}sulfonyl)benzamide]: the “Selectivity Ratio (Platelet EC50/FL5.12/Bcl-2 EC50)” value in the test on FL5.12/Bcl-2 cells is above 157. Besides, the “Binding selectivity ratio” value in the test on GST-Bcl-2 is reported as 224.8.

Values taken from US9125913B2, “Bcl-2-selective apoptosis-inducing agents for the treatment of cancer and immune diseases” (AbbVie Inc., priority 2008, dated 2015).
